Reference: paper PMC11995216, “End-to-End Backbone Cyclization Enhances Passive Permeability of bRo5 Oligomeric Depsipeptides with Nonlinear Size Dependence” (ACS Medicinal Chemistry Letters, 2025)
“And” between values parts separate entries of the source, which are not always exact repeats. Equal values may be shown once. Read-outs that look alike come from different tables or passages of the source. Starred links: 1 amine or outer side, 2 acyl side, 3 side chain; linkers in the order of their positions; H or OH if unused. Non-standard residues stand in square brackets, D forms with d. Residues, ends and D or L forms follow the SMILES beside them. *: point of attachment. X1 = CCCCC[C@H](O[*:1])C(=O)[*:2]; Ahp(2) = CCCCC[C@H](N)C(=O)O; dNMeA = CN[C@H](C)C(=O)O; OBn = c1ccc(CO*)cc1

Assays:
[1] = initial concentration 500 uM, UV detection
[2] = initial concentration 500 uM, UV detection; remark: listed apart in the source
[3] = UV detection
[4] = calculated using Supplement Equation 1, UV detection
[5] = test system: PAMPA
[6] = test system: PAMPA; settings: initial concentration 500 uM
[7] = PAMPA, 500 uM
[8] = in vitro; settings: PAMPA, Papp
[9] = test system: PAMPA; settings: initial concentration 500 uM, UV detection
[10] = test system: PAMPA; settings: UV detection
[11] = test system: PAMPA; settings: calculated using Supplement Equation 1, UV detection

## CCCCC[C@H](NC(=O)[C@@H](C)N(C)C(=O)[C@H](CCCCC)NC(=O)[C@@H](C)N(C)C(=O)[C@H](CCCCC)NC(=O)[C@@H](C)N(C)C(=O)[C@H](CCCCC)OC(=O)[C@@H](C)NC)C(=O)OCc1ccccc1 (H-[dNMeA][X1][dNMeA][Ahp(2)][dNMeA][Ahp(2)][dNMeA][Ahp(2)]-OBn)
[1]; Well 1 / [acc], Well 1
  acceptor concentration after incubation: 56 µM and 61.7 µM
[1]; Well 2 / [acc], Well 2
  acceptor concentration after incubation: 58.6 µM and 63.1 µM
[1]; Well 3 / [acc], Well 3
  acceptor concentration after incubation: 59.5 µM and 60.4 µM
[1]; Well 4 / [acc], Well 4
  acceptor concentration after incubation: 58.3 µM and 60.3 µM
[1]; Well 5 / [acc], Well 5
  acceptor concentration after incubation: 60.6 µM and 61.4 µM
[2]; Well 1 / [donor], Well 1
  donor concentration after incubation: 396 µM and 397 µM
[2]; Well 2 / [donor], Well 2
  donor concentration after incubation: 375 µM and 395 µM
[2]; Well 3 / [donor], Well 3
  donor concentration after incubation: 387 µM and 374 µM
[2]; Well 4 / [donor], Well 4
  donor concentration after incubation: 382 µM and 368 µM
[2]; Well 5 / [donor], Well 5
  donor concentration after incubation: 376 µM and 377 µM
[3]; Well 1 / %R, Well 1
  % recovery: 91% and 92%
[3]; Well 2 / %R, Well 2
  % recovery: 87% and 92%
[3]; Well 3 / %R, Well 3
  % recovery: 90%
[3]; Well 4 / %R, Well 4
  % recovery: 88% and 86%
[3]; Well 5 / %R, Well 5
  % recovery: 87% and 88%
[4]; Well 1 / %T, Well 1
  %T: 0.52% and 0.53%
[4]; Well 2 / %T, Well 2
  %T: 0.54%
[4]; Well 3 / %T, Well 3
  %T: 0.53% and 0.5%
[4]; Well 4 / %T, Well 4
  %T: 0.5% and 0.52%
[4]; Well 5 / %T, Well 5
  %T: 0.53% and 0.52%

## CCCCC[C@H](NC(=O)[C@@H](C)N(C)C(=O)OC(C)(C)C)C(=O)N(C)[C@H](C)C(=O)N[C@H](CCCCC)C(=O)N(C)[C@H](C)C(=O)O[C@@H](CCCCC)C(=O)N(C)[C@H](C)C(=O)O[C@@H](CCCCC)C(=O)OCc1ccccc1 (stereo in doubt) [Compound L2.2]
[1]; Well 1 / [acc], Well 1
  acceptor concentration after incubation: 70.2 µM
[5]; Papp (x 10^-6 cm/s) / [row 1], UV detection
  Papp: 2.7 ×10⁻⁶ cm/s
[5]; Papp (x 10^-6 cm/s) / [row 2], UV detection
  Papp: 2.86 ×10⁻⁶ cm/s
[5]; Papp (x 10^-6 cm/s) / [row 3], UV detection
  Papp: 3.2 ×10⁻⁶ cm/s
[5]; Papp (x 10^-6 cm/s) / [row 4], UV detection
  Papp: 2.91 ×10⁻⁶ cm/s
[5]; Papp (x 10^-6 cm/s) / [row 5], UV detection
  Papp: 2.54 ×10⁻⁶ cm/s
[5]; Papp (x 10^-6 cm/s) / [row 6], UV detection
  Papp: 2.78 ×10⁻⁶ cm/s
[5]; Papp (x 10^-6 cm/s) / [row 7], UV detection
  Papp: 2.8 ×10⁻⁶ cm/s
[5]; Papp (x 10^-6 cm/s) / [row 8], UV detection
  Papp: 2.55 ×10⁻⁶ cm/s
[5]; Papp (x 10^-6 cm/s) / [row 9], UV detection
  Papp: 2.9 ×10⁻⁶ cm/s
[5]; Papp (x 10^-6 cm/s) / [row 10], UV detection
  Papp: 2.68 ×10⁻⁶ cm/s
[2]; Well 1 / [donor], Well 1
  donor concentration after incubation: 406 µM and 404 µM
[2]; Well 2 / [donor], Well 2
  donor concentration after incubation: 384 µM and 380 µM
[2]; Well 3 / [donor], Well 3
  donor concentration after incubation: 381 µM and 392 µM
[2]; Well 4 / [donor], Well 4
  donor concentration after incubation: 416 µM and 380 µM
[2]; Well 5 / [donor], Well 5
  donor concentration after incubation: 398 µM and 382 µM
[3]; Well 1 / %R, Well 1
  % recovery: 95%
[3]; Well 2 / %R, Well 2
  % recovery: 91% and 89%
[3]; Well 3 / %R, Well 3
  % recovery: 91%
[3]; Well 4 / %R, Well 4
  % recovery: 98% and 90%
[3]; Well 5 / %R, Well 5
  % recovery: 89%
[6]; Acceptor Concentration (uM) / [row 1], UV detection
  Acceptor Concentration: 68.3 µM
[6]; Acceptor Concentration (uM) / [row 2], UV detection
  Acceptor Concentration: 68.9 µM
[6]; Acceptor Concentration (uM) / [row 3], UV detection
  Acceptor Concentration: 76.7 µM
[6]; Acceptor Concentration (uM) / [row 4], UV detection
  Acceptor Concentration: 75.8 µM
[6]; Acceptor Concentration (uM) / [row 5], UV detection
  Acceptor Concentration: 62.9 µM
[6]; Acceptor Concentration (uM) / [row 6], UV detection
  Acceptor Concentration: 70.1 µM
[6]; Acceptor Concentration (uM) / [row 7], UV detection
  Acceptor Concentration: 66.3 µM
[6]; Acceptor Concentration (uM) / [row 8], UV detection
  Acceptor Concentration: 62.1 µM
[6]; Acceptor Concentration (uM) / [row 9], UV detection
  Acceptor Concentration: 69 µM
[6]; Acceptor Concentration (uM) / [row 10], UV detection
  Acceptor Concentration: 63.9 µM
[4]; Well 1 / %T, Well 1
  %T: 0.34% and 0.4%
[4]; Well 2 / %T, Well 2
  %T: 0.4%
[4]; Well 3 / %T, Well 3
  %T: 0.36% and 0.39%
[4]; Well 4 / %T, Well 4
  %T: 0.36% and 0.38%
[4]; Well 5 / %T, Well 5
  %T: 0.38% and 0.4%
[7]
  LogPapp: -5.55 ± 0.03
  Δ % diffusion: ↑17%
[8]
  Papp at 500 uM: 2.79 ± 0.19 ×10⁻⁶ cm/s

## CCCCC[C@@H]1OC(=O)[C@@H](C)N(C)C(=O)[C@H](CCCCC)OC(=O)[C@@H](C)N(C)C1=O [Compound C1.2]
[5]; Papp (x 10^-6 cm/s) – ELSD Detection / [row 1], ELSD Detection
  Papp: 4.36 ×10⁻⁶ cm/s
[5]; Papp (x 10^-6 cm/s) – ELSD Detection / [row 2], ELSD Detection
  Papp: 4.48 ×10⁻⁶ cm/s
[5]; Papp (x 10^-6 cm/s) – ELSD Detection / [row 3], ELSD Detection
  Papp: 4.72 ×10⁻⁶ cm/s
[5]; Papp (x 10^-6 cm/s) – ELSD Detection / [row 4], ELSD Detection
  Papp: 4.83 ×10⁻⁶ cm/s
[5]; Papp (x 10^-6 cm/s) – ELSD Detection / [row 5], ELSD Detection
  Papp: 4.34 ×10⁻⁶ cm/s
[5]; Papp (x 10^-6 cm/s) – ELSD Detection / [row 6], ELSD Detection
  Papp: 4.86 ×10⁻⁶ cm/s
[5]; Papp (x 10^-6 cm/s) – ELSD Detection / [row 7], ELSD Detection
  Papp: 4.88 ×10⁻⁶ cm/s
[5]; Papp (x 10^-6 cm/s) – ELSD Detection / [row 8], ELSD Detection
  Papp: 5.23 ×10⁻⁶ cm/s
[5]; Papp (x 10^-6 cm/s) – ELSD Detection / [row 9], ELSD Detection
  Papp: 5.23 ×10⁻⁶ cm/s
[5]; Papp (x 10^-6 cm/s) – ELSD Detection / [row 10], ELSD Detection
  Papp: 4.89 ×10⁻⁶ cm/s
[5]; Papp (x 10^-6 cm/s) – UV Detection / [row 1], UV Detection
  Papp: 4.63 ×10⁻⁶ cm/s
[5]; Papp (x 10^-6 cm/s) – UV Detection / [row 2], UV Detection
  Papp: 4.93 ×10⁻⁶ cm/s
[5]; Papp (x 10^-6 cm/s) – UV Detection / [row 3], UV Detection
  Papp: 5.16 ×10⁻⁶ cm/s
[5]; Papp (x 10^-6 cm/s) – UV Detection / [row 4], UV Detection
  Papp: 5.2 ×10⁻⁶ cm/s
[5]; Papp (x 10^-6 cm/s) – UV Detection / [row 6], UV Detection
  Papp: 4.49 ×10⁻⁶ cm/s
[5]; Papp (x 10^-6 cm/s) – UV Detection / [row 7], UV Detection
  Papp: 5.18 ×10⁻⁶ cm/s
[5]; Papp (x 10^-6 cm/s) – UV Detection / [row 8], UV Detection
  Papp: 5.55 ×10⁻⁶ cm/s
[5]; Papp (x 10^-6 cm/s) – UV Detection / [row 9], UV Detection
  Papp: 5.44 ×10⁻⁶ cm/s
[5]; Papp (x 10^-6 cm/s) – UV Detection / [row 10], UV Detection
  Papp: 4.87 ×10⁻⁶ cm/s
[9]; Well 1 / [donor], Well 1
  donor concentration after incubation: 356 µM
[9]; Well 2 / [donor], Well 2
  donor concentration after incubation: 347 µM and 350 µM
[9]; Well 3 / [donor], Well 3
  donor concentration after incubation: 356 µM and 338 µM
[9]; Well 4 / [donor], Well 4
  donor concentration after incubation: 346 µM
[9]; Well 5 / [donor], Well 5
  donor concentration after incubation: 339 µM and 346 µM
[10]; Well 1 / %R, Well 1
  % recovery: 90%
[10]; Well 2 / %R, Well 2
  % recovery: 90% and 92%
[10]; Well 3 / %R, Well 3
  % recovery: 93% and 90%
[10]; Well 4 / %R, Well 4
  % recovery: 92%
[10]; Well 5 / %R, Well 5
  % recovery: 88% and 89%
[6]; Acceptor Concentration (uM) – ELSD Detection / [row 1], ELSD Detection
  Acceptor Concentration: 94.8 µM
[6]; Acceptor Concentration (uM) – ELSD Detection / [row 2], ELSD Detection
  Acceptor Concentration: 98.9 µM
[6]; Acceptor Concentration (uM) – ELSD Detection / [row 3], ELSD Detection
  Acceptor Concentration: 102 µM
[6]; Acceptor Concentration (uM) – ELSD Detection / [row 4], ELSD Detection
  Acceptor Concentration: 107 µM
[6]; Acceptor Concentration (uM) – ELSD Detection / [row 5], ELSD Detection
  Acceptor Concentration: 98.1 µM
[6]; Acceptor Concentration (uM) – ELSD Detection / [row 6], ELSD Detection
  Acceptor Concentration: 113 µM
[6]; Acceptor Concentration (uM) – ELSD Detection / [row 7], ELSD Detection
  Acceptor Concentration: 118 µM
[6]; Acceptor Concentration (uM) – ELSD Detection / [row 8], ELSD Detection
  Acceptor Concentration: 122 µM
[6]; Acceptor Concentration (uM) – ELSD Detection / [row 9], ELSD Detection
  Acceptor Concentration: 113 µM
[6]; Acceptor Concentration (uM) – ELSD Detection / [row 10], ELSD Detection
  Acceptor Concentration: 109 µM
[6]; Acceptor Concentration (uM) – UV Detection / [row 1], UV Detection
  Acceptor Concentration: 98.5 µM
[6]; Acceptor Concentration (uM) – UV Detection / [row 2], UV Detection
  Acceptor Concentration: 103 µM
[6]; Acceptor Concentration (uM) – UV Detection / [row 3], UV Detection
  Acceptor Concentration: 111 µM
[6]; Acceptor Concentration (uM) – UV Detection / [row 4], UV Detection
  Acceptor Concentration: 108 µM
[6]; Acceptor Concentration (uM) – UV Detection / [row 5], UV Detection
  Acceptor Concentration: 103 µM
[6]; Acceptor Concentration (uM) – UV Detection / [row 6], UV Detection
  Acceptor Concentration: 95 µM
[6]; Acceptor Concentration (uM) – UV Detection / [row 7], UV Detection
  Acceptor Concentration: 109 µM
[6]; Acceptor Concentration (uM) – UV Detection / [row 8], UV Detection
  Acceptor Concentration: 114 µM
[6]; Acceptor Concentration (uM) – UV Detection / [row 9], UV Detection
  Acceptor Concentration: 114 µM
[11]; Well 1 / %T, Well 1
  %T: 0.56% and 0.55%
[11]; Well 2 / %T, Well 2
  %T: 0.58% and 0.6%
[11]; Well 3 / %T, Well 3
  %T: 0.6% and 0.62%
[11]; Well 4 / %T, Well 4
  %T: 0.6% and 0.61%
[11]; Well 5 / %T, Well 5
  %T: 0.59% and 0.57%
[7]
  LogPapp: -5.30 ± 0.03
  Δ % diffusion: ↑5%
[8]
  Papp at 500 uM: 5.05 ± 0.33 ×10⁻⁶ cm/s
[8]; Ave
  Papp at 500 uM: 4.78 ×10⁻⁶ cm/s
